Source: US5641500A, “Use of purinergic receptor agonists as antineoplastic agents” (The United States of America as represented by the …, priority 1995, dated 1997)

Columns and labels:
[1] = test system: plasma membrane Ca^2+ channels; assay: Effect of organic Ca2+ channel blockers on the ATP-stimulated Ca2+ transient in PC-3; assay type: cell-based, human; details: PC-3, FIG. 9
[2] = test system: DU145 prostate carcinoma purinergic receptor; assay: ATP/purine-stimulated Ca2+ response (quin2 fluorescence) in DU145; assay type: cell-based, human; details: for relative agonist potency/activity in inducing a Ca2+ transient: DU145, FIG. 6
Description: (§5) The human prostate carcinoma cell lines PC3, DU145 (American Type Culture Collection) and PC-3M (a gift of Dr. G. Weiss, Surgery Branch, NCI) were maintained in Ham's F12K (PC3), Eagle's Modified Essential Medium (DU145), or RPMI 1640 (PC3M), supplemented with 7% (PC3) or 10% (DU145 and PC3M) fetal bovine serum, 100 units/ml penicillin, 100 mg/ml streptomycin, and 300 mg/ml glutamine. The cells were grown in a mixture of 5% CO2, 95% air at 37° C., and propagated by typsinization and dilution into fresh medium. Cells were typically used for calcium determination two days after dilution into fresh medium.
(§6) [Ca^2+ ]i was determined by the quin2 technique of Tsien et al. (J. Cell Biol. 94:325-334, 1982) with some modifications. Briefly, cells from confluent cultures were harvested by treatment with trypsin-EDTA. Cells were washed with calcium medium (1 mM CaCl2, 1 mM KCl, 1 mM MgCl2, 140 mM NaCl, 20 mM HEPES, 5 mM dextrose, pH 7.4), and loaded with 20 mM quin2/AM (Molecular Probes, Eugene, Oreg.) in calcium medium at 37° C. for 30 minutes, then diluted 5-fold with the same medium and incubated at 37° C. for 60 minutes. After loading, cells were washed and resuspended in the calcium media at 1.5-2.0×10^6 cells/ml and kept on ice until use. Cell viability was determined by trypan blue exclusion and was usually >95%. For measurement of fluorescence, 2 ml of cell suspension was transferred to a cuvette maintained at 37° C. Fluorescence was measured in a Perkin-Elmer 650-10S fluorescence spectrophotometer, with an excitation wavelength of 336 nm, slit 5 nm, and an emission wavelength of 493 nm, slit 5 nm. [Ca^2+ ]i was estimated after calibration with Triton X-100 and EGTA, assuming a dissociation constant of the Ca^2+ -quin2 complex of 115 nM.

[3] = test system: PC-3 prostate carcinoma purinergic receptor; assay: ATP/purine-stimulated Ca2+ response (quin2 fluorescence) in PC-3; assay type: cell-based, human; details: for relative agonist potency/activity in inducing a Ca2+ transient: PC-3, FIG. 7
Description: as §5, §6

[4] = test system: purinergic receptor on PC-3M prostate carcinoma cells; assay: Purine-stimulated Ca2+ response (quin2 fluorescence) in PC-3M; assay type: cell-based, human; details: FIG. 8
Description: as §5, §6

phospholipase C = assay: ATP-stimulated inositol phosphate production (HPLC of 3H-inositol phosphates) in PC-3; assay type: cell-based, human
Description: Cells were incubated with ^3 H-inositol (6 μCi/ml) in inositol-free RPMI 1640 medium (NIH Media Unit) without serum for 2 to 3 days at 37° C. under an atmosphere of 5% CO2, 95% air. Cells were detached by trypsinization, washed twice in phosphate buffered saline pH 7.4, resuspended in PBS with 10 mM LiCl, and maintained for 15 minutes at 37° C. After that, cells were washed twice with PBS plus 10 mM LiCl and resuspended in calcium medium plus 10 mM LiCl. The cell suspension was aliquoted into Eppendorf tubes, pre-warmed at 37° C., and treated with reagents for different times as indicated. Reactions were terminated by adding 100% trichloroacetic acid (TCA) to a final concentration of 10%. After centrifugation, the supernatants were removed, extracted twice with water-saturated ether to remove TCA, and stored at 4° C. until quantitative analysis of inositol phosphates by high pressure liquid chromatography.
Samples prepared as described above were applied to a Whatman Partisil 5 SAX column. Inositol phosphates were separated using an ammonium phosphate gradient (0.01M to 1.4M. pH 3.8, 1 ml/min flow rate) as described previously (Biochem. J. 255: 403-410, 1988). Radioactivity was measured by use of a Raytest radiodetector with a 2 ml flow cell and a ratio of 4:1 (v:v) of Monoflow 4 high salt scintillant (National Diagnostics); eluate at an efficiency of 17%. Values (counts/min) for each inositol phosphate were expressed as a percentage of ^3 H-phosphoinositides in the sample, permitting comparison among experiments.

[5] = test system: PC-3 prostate carcinoma cells; assay: Cell growth (hemacytometer viable cell counts) and 3H-thymidine incorporation in PC-3; assay type: cell-based, human; details: for inhibition of cell growth: PC-3, 5 days, versus untreated control cells, FIG. 12; for 3H-thymidine incorporation cpm / 3H-thymidine incorporation cpm/cell / cell # (× 10-4): PC-3, 7 days
Description: (§1) The human prostate carcinoma cell lines PC3, DU145 (American Type Culture Collection) and PC-3M (a gift of Dr. G. Weiss, Surgery Branch, NCI) were maintained in Ham's F12K (PC3), Eagle's Modified Essential Medium (DU145), or RPMI 1640 (PC3M), supplemented with 7% (PC3) or 10% (DU145 and PC3M) fetal bovine serum, 100 units/ml penicillin, […], and […]. The cells were grown in a mixture of 5% CO2, 95% air at 37° C., and propagated by typsinization and dilution into fresh medium. Cells were typically used for calcium determination two days after dilution into fresh medium.
(§2) Cell growth was studied by hemacytometer counts of viable cells after incubation of cells with purinergic agonists in vitro. Viability was determined by trypan blue exclusion. In addition, growth studies were performed by ^3 H-thymidine incorporation. […] The induction of DNA strand breaks in the setting of cell growth inhibition is characteristic of programmed cell death or apoptosis.
(§3) Since purinergic receptor agonists induce massive mobilization of internal Ca^2+ stores and prolong this response through the opening of plasma membrane Ca^2+ channels, the effect of purinergic receptor stimulation on the growth of androgen-independent cells was examined. The cell lines DU145, PC-3, and PC-3M were incubated in the presence of ATP or the nonhydrolysable ATP analog adenylylimidodiphosphate (AMP-PNP), and cell growth was determined by hemacytometer counts of viable cells, with viability determined by trypan blue exclusion.
(§4) To further document the purinergic agonist-induced growth inhibition, thymidine incorporation studies were performed in conjunction with hemacytometer cell counts, and the thymidine incorporation per cell of ATP and AMP-PNP treated PC-3 and PC-3M cells was determined. These studies, shown in Table 2, confirmed that purinergic agonists inhibit the growth of androgen-independent prostate carcinoma cells. […] It is of interest that normal prostate cells die in response to androgen withdrawal in a process called apoptosis, and this cell death resembles the cell death shown after treatment with purinergic agonists in two respects. Firstly, the death of normal prostate cells after androgen withdrawal is dependent on a rise in intracellular Ca^2+. Secondly, the death of normal prostate cells after androgen withdrawal is mediated by an increase in the number of DNA strand breaks. Thus, this technique should be therapeutically useful for circumventing the absence of androgen receptors on advanced prostate carcinoma cells. The results presented here represent the discovery of a surface receptor specifically expressed on advanced prostatic adenocarcinoma which, when activated, induces a mode of cell death that apparently utilizes that same intracellular pathway as the death that normal prostate cells undergo in response to the withdrawal of androgen.

[6] = test system: PC-3M prostate carcinoma cells; assay: Cell growth (hemacytometer viable cell counts) and 3H-thymidine incorporation in PC-3M; assay type: cell-based, human; details: 5 days
Description: as §1, §2, §3, §4

DU145 cells = assay: Cell growth (hemacytometer viable cell counts) in DU145; assay type: cell-based, human; details: DU145, 5 days, 100 μM, versus untreated controls, FIG. 11
Description: as §1
Cell growth was studied by hemacytometer counts of viable cells after incubation of cells with purinergic agonists in vitro. Viability was determined by trypan blue exclusion. In addition, growth studies were performed by ^3 H-thymidine incorporation. […]
as §3

[7] = test system: PC-3 prostate carcinoma cells; assay: Nude mouse tumorigenesis of PC-3 cells pretreated in vitro; assay type: in vivo, athymic mice; details: cells pretreated in vitro 100 uM 3 times over 7 days, 1.5×10^6 cells/mouse s.c., FIG. 13
Description: PC-3 prostate carcinoma cells were treated in vitro with the purinergic agonists ATP or AMP-PNP, 100 uM 3 times over 7 days, and their growth in athymic mice was compared to that in untreated control cells. Cells were injected subcutaneously at an inoculum of 1.5×10^6 cells/mouse in 0.2 ml phosphate buffered saline, and the presence of palpable tumors was determined on day 22.
The cells were treated in vitro for 7 days, and then an equal number of untreated control cells, ATP treated, or AMP-PNP treated cells were inoculated subcutaneously into nude (athymic) mice.

**Q.** `COc1ccc([C@@H]2Sc3ccccc3N(CCN(C)C)C(=O)[C@@H]2OC(C)=O)cc1` [diltiazem] was tested. Which “inhibition of influx of extracellular Ca2+ caused by ATP stimulation” value (“inhibition of influx … by ATP stimulation” below) [1] did it give?
**A.** Its value is “inhibitable”.

**Q.** With `Nc1ncnc2c1ncn2[C@@H]1O[C@H](CO)[C@@H](O)[C@H]1O` [adenosine] as the compound, how does the “relative agonist potency/activity in inducing a Ca2+ transient” value (shortened to “relative agonist potency/activity”) [2] read?
**A.** Its value is “ATP>ADP>AMP>adenosine”.

**Q.** And the “relative agonist potency/activity” value [3]?
**A.** Its value is “ATP>ADP>AMP>adenosine”.

**Q.** What about the “relative agonist potency/activity” value [4] of the same compound?
**A.** The value was “ATP>ADP>AMP>adenosine”.

**Q.** What does the source list for `Nc1ncnc2c1ncn2[C@@H]1O[C@H](COP(=O)(O)OP(=O)(O)OP(=O)(O)O)[C@@H](O)[C@H]1O` [ATP, adenosine triphosphate]?
**A.** mean percent stimulation of Ca2+ response ([2]; DU145, 100 μM ATP, 13 experiments): 510.7%; relative agonist potency/activity in inducing a Ca2+ transient [2]: ATP>ADP>AMP>adenosine; mean percent stimulation of Ca2+ response ([3]; PC-3, 100 μM ATP, 16 experiments): 443.3%; Ca2+ mobilizing activity compared with other peptides and neurotransmitters ([3]; PC-3, FIG. 1): largest Ca^2+ response of the agonists tested; relative agonist potency/activity in inducing a Ca2+ transient [3]: ATP>ADP>AMP>adenosine; relative agonist potency/activity in inducing a Ca2+ transient [4]: ATP>ADP>AMP>adenosine; I(1,4,5)P3 % of total IP (phospholipase C; PC-3, 8 sec): 0.64 % of total IP; I(1,4,5)P3 cpm (phospholipase C; PC-3, 8 sec): 1103 cpm; I(1,4,5)P3 % of total IP (phospholipase C; PC-3, 15 sec): 0.57 % of total IP; I(1,4,5)P3 cpm (phospholipase C; PC-3, 15 sec): 971 cpm; I(1,4,5)P3 % of total IP (phospholipase C; PC-3, 30 sec): 0.78 % of total IP; I(1,4,5)P3 cpm (phospholipase C; PC-3, 30 sec): 1361 cpm; inhibition of cell growth ([5]; 100 μM): inhibition of growth; 3H-thymidine incorporation cpm ([5]; 100 μM): 2729 cpm; 3H-thymidine incorporation cpm/cell ([5]; 100 μM): 0.04 cpm/cell; cell # (× 10-4) ([5]; 100 μM): 7.5 × 10-4; 3H-thymidine incorporation cpm ([6]; 100 μM): 3307 cpm; 3H-thymidine incorporation cpm/cell ([6]; 100 μM): 0.11 cpm/cell; cell # (× 10-4) ([6]; 100 μM): 3.0 × 10-4; inhibition of cell growth (DU145 cells): inhibition of growth; inhibition of tumorigenesis (palpable tumor) [7]: inhibition of PC-3 prostate carcinoma tumorigenesis

**Q.** With `Nc1ncnc2c1ncn2[C@@H]1O[C@H](COP(=O)(O)OP(=O)(O)NP(=O)(O)O)[C@@H](O)[C@H]1O` [AMP-PNP, 5'adenylylimidodiphosphate] as the compound, how does the “inhibition of cell growth” value ([5]; 100 μM) read?
**A.** Its value is “inhibition of growth”.

**Q.** And the 3H-thymidine incorporation cpm ([5]; 100 μM)?
**A.** Its 3H-thymidine incorporation cpm is 307 cpm.

**Q.** And the 3H-thymidine incorporation cpm/cell ([5]; 100 μM)?
**A.** The 3H-thymidine incorporation cpm/cell was 0.06 cpm/cell.

**Q.** And the “cell # (× 10-4)” value ([5]; 100 μM)?
**A.** The value was 0.5 × 10-4.

**Q.** What about the 3H-thymidine incorporation cpm ([6]; 100 μM) of the same compound?
**A.** The 3H-thymidine incorporation cpm was 2790 cpm.

**Q.** What about the 3H-thymidine incorporation cpm/cell ([6]; 100 μM) of the same compound?
**A.** The 3H-thymidine incorporation cpm/cell was 0.14 cpm/cell.

**Q.** And the “cell # (× 10-4)” value ([6]; 100 μM)?
**A.** Its value is 2.0 × 10-4.

**Q.** What about the “inhibition of cell growth” value (DU145 cells) of the same compound?
**A.** Its value is “inhibition of growth”.

**Q.** And the “inhibition of tumorigenesis (palpable tumor)” value [7]?
**A.** Its value is “inhibition of PC-3 prostate carcinoma tumorigenesis”.

**Q.** How did the “relative agonist potency/activity” value [2] turn out when `Nc1ncnc2c1ncn2[C@@H]1O[C@H](COP(=O)(O)OP(=O)(O)O)[C@@H](O)[C@H]1O` [ADP, adenosine diphosphate] was run?
**A.** Its value is “ATP>ADP>AMP>adenosine”.

**Q.** What about the “relative agonist potency/activity” value [3] of the same compound?
**A.** The value was “ATP>ADP>AMP>adenosine”.

**Q.** What about the “relative agonist potency/activity” value [4] of the same compound?
**A.** Its value is “ATP>ADP>AMP>adenosine”.

**Q.** How did the “inhibition of influx … by ATP stimulation” value [1] turn out when `COC(=O)C1=C(C)NC(C)=C(C(=O)OC)C1c1ccccc1[N+](=O)[O-]` [nifedipine] was run?
**A.** Its value is “inhibitable”.

**Q.** With `CCCC(=O)Nc1ncnc2c1ncn2[C@@H]1O[C@@H]2COP(=O)(O)O[C@H]2[C@H]1OC(=O)CCC` [DbcAMP, reference compound] as the compound, how does the 3H-thymidine incorporation cpm ([5]; DbcAMP concentration not given) read?
**A.** Its 3H-thymidine incorporation cpm is 182 cpm.

**Q.** What about the 3H-thymidine incorporation cpm/cell ([5]; DbcAMP concentration not given) of the same compound?
**A.** Its 3H-thymidine incorporation cpm/cell is 0.01 cpm/cell.

**Q.** And the “cell # (× 10-4)” value ([5]; DbcAMP concentration not given)?
**A.** The value was 1.5 × 10-4.

**Q.** With `Nc1ncnc2c1ncn2[C@@H]1O[C@H](COP(=O)(O)O)[C@@H](O)[C@H]1O` [AMP, adenosine monophosphate] as the compound, how does the “relative agonist potency/activity” value [2] read?
**A.** The value was “ATP>ADP>AMP>adenosine”.

**Q.** What about the “relative agonist potency/activity” value [3] of the same compound?
**A.** Its value is “ATP>ADP>AMP>adenosine”.

**Q.** And the “relative agonist potency/activity” value [4]?
**A.** The value was “ATP>ADP>AMP>adenosine”.

**Q.** For `COC(=O)C1=C(C)NC(C)=C(C(=O)OCCN(C)Cc2ccccc2)C1c1cccc([N+](=O)[O-])c1` (stereo not shown) [nicardipine], which “inhibition of influx … by ATP stimulation” value [1] is on record?
**A.** Its value is “inhibitable”.

**Q.** With `COc1ccc(CCN(C)CCCC(C#N)(c2ccc(OC)c(OC)c2)C(C)C)cc1OC` (stereo not shown) [verapamil] as the compound, how does the “inhibition of influx … by ATP stimulation” value [1] read?
**A.** Its value is “inhibitable”.

**Q.** What does the source list for `C[C@H](CCC(=O)O)C[C@H](C)C[C@H](C)C(=O)/C=C(\O)[C@H](C)C[C@H](C)C/C=C/[C@@H](C)[C@@H](O)[C@@H](C)[C@@H](O)C[C@@H]1CC[C@@](C)([C@H]2CC[C@@](C)([C@@H](C)O)O2)O1` [Ionomycin, ionomycin, reference compound]?
**A.** 3H-thymidine incorporation cpm ([6]; 1 μM): 3920 cpm; 3H-thymidine incorporation cpm/cell ([6]; 1 μM): 0.39 cpm/cell; cell # (× 10-4) ([6]; 1 μM): 1.0 × 10-4
